The text below walks through data of publication PMC4838876, “Multivalent display of minimal Clostridium difficile glycan epitopes mimics antigenic properties of larger glycans” (Nature Communications, 2016).

Molecules are shown by their SMILES.

One assay concerns mAb 10A1. Description: Isothermal titration calorimetry (ITC). The class given is binding, mouse. Here is the method: (§1) Figure 7 IM and thermodynamic analysis of glycan–mAb interactions and conformation of 1. (a) IM analysis. The heat maps represent on- and off-rates of mAb 2C5 to 1 (upper) and 3 (lower). (b) Thermograms acquired using 7 μM of mAb 2C5 and titrating 250 μM of 1 (left) or 3 mM of 3 (right) at 25 °C. Thermodynamic parameters were inferred by nonlinear least-square fits of the data points. (c) Summary of thermodynamic parameters for 1 and 3 interacting with mAbs 2C5 and 10A1. Bars represent mean±s.e.m. of two independent measurements. See Supplementary Fig. 6 for details. (d) One-dimensional proton NMR spectrum, and 2D zTOCSY and NOE spectroscopy (NOESY) NMR spectra of 1 showing the coupled protons to the anomeric protons of the five residues with numbering according to the structure shown in e. Blue circles mark cross-peaks that appear in the NOESY spectrum, whereas not showing a corresponding peak in the zTOCSY. These peaks were marked as inter-residue NOEs and labelled by residue number and proton name. […]
(§2) Assuming that 1 had more interactions with the binding pockets, association with 1 would liberate more water molecules during complex formation than 3, thereby producing a more favourable entropy. To investigate this, thermodynamic parameters of mAb interactions with 1 and 3 were measured by ITC (Fig. 7b). […]

The next assay concerns mAb 2C5. Description: Isothermal titration calorimetry (ITC). Type of assay: binding, mouse. The protocol:
as §1, §2
(In general: ITC needs no label: the signal is the heat of the interaction.)

In the case of `C[C@@H]1O[C@@H](O[C@@H]2[C@@H](O)[C@H](O[C@H]3[C@H](O[C@@H]4O[C@@H](C)[C@H](O)[C@@H](O)[C@H]4O)[C@@H](O)[C@@H](O[C@H]4[C@@H](OCCCCCN)O[C@H](CO)[C@@H](O)[C@@H]4O)O[C@@H]3CO)O[C@H](CO)[C@H]2O)[C@H](O)[C@H](O)[C@H]1O` [Compound 1], the binding stoichiometry with mAb 10A1 is recorded as 2.6; in the assay on mAb 2C5, 2.2.
